SMILES strings stand for the structures.

This experiment deals with Transient receptor potential cation channel subfamily V member 1 (Homo sapiens, UniProt Q8NER1). The experiment in a line: Agonist activity at human recombinant TRPV1 expressed in human HEK293 cells. In kind it is functional, cell-based.
Chain of Transient receptor potential cation channel subfamily V member 1 (Q8NER1 whole entry): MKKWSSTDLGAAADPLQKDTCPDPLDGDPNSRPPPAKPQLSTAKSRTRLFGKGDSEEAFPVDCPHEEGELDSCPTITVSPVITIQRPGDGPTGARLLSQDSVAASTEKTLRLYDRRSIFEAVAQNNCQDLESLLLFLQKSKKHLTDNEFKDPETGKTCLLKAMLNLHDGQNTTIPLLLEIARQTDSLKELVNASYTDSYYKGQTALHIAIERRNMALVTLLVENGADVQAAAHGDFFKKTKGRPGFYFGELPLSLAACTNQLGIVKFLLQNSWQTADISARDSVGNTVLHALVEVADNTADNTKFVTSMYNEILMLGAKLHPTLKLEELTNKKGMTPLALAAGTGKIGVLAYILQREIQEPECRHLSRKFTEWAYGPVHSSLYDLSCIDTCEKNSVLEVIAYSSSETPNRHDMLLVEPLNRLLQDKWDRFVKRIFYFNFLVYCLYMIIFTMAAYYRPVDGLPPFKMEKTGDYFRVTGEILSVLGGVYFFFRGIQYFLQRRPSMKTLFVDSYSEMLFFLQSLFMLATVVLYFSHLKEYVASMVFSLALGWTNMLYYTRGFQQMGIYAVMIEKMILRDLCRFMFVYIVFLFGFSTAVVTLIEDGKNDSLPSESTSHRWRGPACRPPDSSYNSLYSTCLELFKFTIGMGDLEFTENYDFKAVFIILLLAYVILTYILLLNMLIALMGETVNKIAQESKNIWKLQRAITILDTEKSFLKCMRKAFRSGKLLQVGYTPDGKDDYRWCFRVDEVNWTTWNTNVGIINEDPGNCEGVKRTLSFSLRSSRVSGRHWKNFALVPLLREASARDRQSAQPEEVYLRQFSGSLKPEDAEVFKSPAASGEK

In the case of `C=C(C)[C@]12C[C@@H](C)[C@@]3(OCc4ccccc4)[C@@H](C=C(COC(=O)/C=C/c4ccc(O)c(OC)c4)C[C@]4(O)C(=O)C(C)=C[C@@H]34)[C@H]1OCO2`, the EC50 (as a rule, the midpoint of the concentration-response curve) was found to be 1.5 nM.
Next, `C=C(C)[C@]12C[C@@H](C)[C@@]3(OCc4ccccc4)[C@@H](C=C(COC(=O)Cc4ccccc4)C[C@]4(O)C(=O)C(C)=C[C@@H]34)[C@H]1OCO2`: 4.7 nM; `C=C(C)[C@]12C[C@@H](C)[C@@]3(OCc4ccccc4)[C@@H](C=C(COC(=O)CCc4ccccc4)C[C@]4(O)C(=O)C(C)=C[C@@H]34)[C@H]1OCO2`: 51.5 nM; `C=C(C)[C@]12C[C@@H](C)[C@@]3(OCc4ccccc4)[C@@H](C=C(COC(=O)CCc4ccc(O)c(OC)c4)C[C@]4(O)C(=O)C(C)=C[C@@H]34)[C@H]1OCO2`: 4.6 nM.
With `C=C(C)[C@]12C[C@@H](C)[C@@]3(OCc4ccccc4)[C@@H](C=C(COC(=O)c4ccc(O)c(OC)c4)C[C@]4(O)C(=O)C(C)=C[C@@H]34)[C@H]1OCO2` the figure was 9.4 nM.
With `C=C(C)[C@]12C[C@@H](C)[C@@]3(OCc4ccccc4)[C@@H](C=C(COC(=O)c4ccccc4)C[C@]4(O)C(=O)C(C)=C[C@@H]34)[C@H]1OCO2` the figure was 25.5 nM; with `C=C(C)[C@]12C[C@@H](C)[C@@]3(OCc4ccccc4)[C@@H](C=C(COC(=O)c4cc(OC)c(O)cc4I)C[C@]4(O)C(=O)C(C)=C[C@@H]34)[C@H]1OCO2`, 15.2 nM; with `C=C(C)[C@]12C[C@@H](C)[C@@]34O[C@](Cc5ccccc5)(O[C@@H]1[C@@H]3C=C(COC(=O)Cc1ccc(O)c(OC)c1)C[C@]1(O)C(=O)C(C)=C[C@@H]41)O2` [RESINIFERATOXIN], 0.019 nM.
As to `C=C(C)[C@]12C[C@@H](C)[C@@]3(OCc4ccccc4)[C@@H](C=C(COC(=O)/C=C/c4ccccc4)C[C@]4(O)C(=O)C(C)=C[C@@H]34)[C@H]1OCO2`, the EC50 turned out to be 69.5 nM.
Next, `C=C(C)[C@]12C[C@@H](C)[C@@]3(OCc4ccccc4)[C@@H](C=C(COC(=O)c4cc(I)c(O)c(OC)c4)C[C@]4(O)C(=O)C(C)=C[C@@H]34)[C@H]1OCO2`: 1.9 nM; `C=C(C)[C@]12C[C@@H](C)[C@@]3(OCc4ccccc4)[C@@H](C=C(COC(=O)CCc4cc(OC)c(O)cc4I)C[C@]4(O)C(=O)C(C)=C[C@@H]34)[C@H]1OCO2`: 7.9 nM; `C=C(C)[C@]12C[C@@H](C)[C@@]3(OCc4ccccc4)[C@@H](C=C(COC(=O)CCc4cc(I)c(O)c(OC)c4)C[C@]4(O)C(=O)C(C)=C[C@@H]34)[C@H]1OCO2`: 8.6 nM.

The values are drawn from ChEMBL document CHEMBL1146259, “Structure-activity relationships of the ultrapotent vanilloid resiniferatoxin (RTX): the homovanillyl moiety” (Bioorg Med Chem Lett, 2007).
